# Columns and labels:
# Experiment in all cases: radiometric filter-binding kinase assay, Kinase HotSpot
# Conditions in all cases: compound 0.5 µM; ATP 10 µM
# PRKCZ (human) = PRKCZ (human) (UniProt Q05513)
# [1] = biological target: JAK1 JH1 catalytic (human) (UniProt P23458)
# ROCK1 (human) = ROCK1 (human) (UniProt Q13464)
# STK3 (human) = STK3 (human) (UniProt Q13188)
# SIK2 (human) = SIK2 (human) (UniProt Q9H0K1)
# MAP4K5 (human) = MAP4K5 (human) (UniProt Q9Y4K4)
# TNK2 (human) = TNK2 (human) (UniProt Q07912)
# SLK (human) = SLK (human) (UniProt Q9H2G2)
# WNK2 (human) = WNK2 (human) (UniProt Q9Y3S1)
# PRKCD (human) = PRKCD (human) (UniProt Q05655)
# NUAK2 (human) = NUAK2 (human) (UniProt Q9H093)
# ACVR1B (human) = ACVR1B (human) (UniProt P36896)
# CAMK2B (human) = CAMK2B (human) (UniProt Q13554)
# RPS6KA1 KD1 KD2 (human) = RPS6KA1 KD1 KD2 (human) (UniProt Q15418)
# CAMKK1 (human) = CAMKK1 (human) (UniProt Q8N5S9)
# FGFR2 (human) = FGFR2 (human) (UniProt P21802)
# MELK (human) = MELK (human) (UniProt Q14680)
# PDGFRA (human) = PDGFRA (human) (UniProt P16234)
# [2] = test system: FLT4 (human), P35916 [Q890H]
# CDK5 CDK5R1 p35 (human) = CDK5 CDK5R1 p35 (human) (UniProt Q00535+Q15078)
# DYRK1B (human) = DYRK1B (human) (UniProt Q9Y463)
# BLK (human) = BLK (human) (UniProt P51451)
# DYRK3 (human) = DYRK3 (human) (UniProt O43781)
# PRKCB1 (human) = PRKCB1 (human) (UniProt P05771)
# GRK4 (human) = GRK4 (human) (UniProt P32298)
# SGK2 (human) = SGK2 (human) (UniProt Q9HBY8)
# CDK1 CCNA2 (human) = CDK1 CCNA2 (human) (UniProt P06493+P20248)
# STK25 (human) = STK25 (human) (UniProt O00506)
# Sequence of STK25 (human) (O00506 whole entry, looked up): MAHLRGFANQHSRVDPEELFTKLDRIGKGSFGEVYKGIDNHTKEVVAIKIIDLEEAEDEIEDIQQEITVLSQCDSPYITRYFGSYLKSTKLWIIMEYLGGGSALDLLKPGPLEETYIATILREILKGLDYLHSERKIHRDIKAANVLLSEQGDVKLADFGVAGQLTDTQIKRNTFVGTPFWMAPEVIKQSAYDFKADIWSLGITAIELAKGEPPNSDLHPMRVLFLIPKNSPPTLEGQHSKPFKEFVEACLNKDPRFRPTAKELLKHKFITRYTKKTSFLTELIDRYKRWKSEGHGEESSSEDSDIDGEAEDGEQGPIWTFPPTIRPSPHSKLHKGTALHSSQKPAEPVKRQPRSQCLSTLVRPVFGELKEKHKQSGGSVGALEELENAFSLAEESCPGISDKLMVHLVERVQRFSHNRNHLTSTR
# [3] = biological target: TYK2 JH1 catalytic (human) (UniProt P29597)
# PRKD3 (human) = PRKD3 (human) (UniProt O94806)
# SRMS (human) = SRMS (human) (UniProt Q9H3Y6)
# ABL2 (human) = ABL2 (human) (UniProt P42684)
# HIPK4 (human) = HIPK4 (human) (UniProt Q8NE63)
# Sequence of HIPK4 (human) (Q8NE63 whole entry, looked up): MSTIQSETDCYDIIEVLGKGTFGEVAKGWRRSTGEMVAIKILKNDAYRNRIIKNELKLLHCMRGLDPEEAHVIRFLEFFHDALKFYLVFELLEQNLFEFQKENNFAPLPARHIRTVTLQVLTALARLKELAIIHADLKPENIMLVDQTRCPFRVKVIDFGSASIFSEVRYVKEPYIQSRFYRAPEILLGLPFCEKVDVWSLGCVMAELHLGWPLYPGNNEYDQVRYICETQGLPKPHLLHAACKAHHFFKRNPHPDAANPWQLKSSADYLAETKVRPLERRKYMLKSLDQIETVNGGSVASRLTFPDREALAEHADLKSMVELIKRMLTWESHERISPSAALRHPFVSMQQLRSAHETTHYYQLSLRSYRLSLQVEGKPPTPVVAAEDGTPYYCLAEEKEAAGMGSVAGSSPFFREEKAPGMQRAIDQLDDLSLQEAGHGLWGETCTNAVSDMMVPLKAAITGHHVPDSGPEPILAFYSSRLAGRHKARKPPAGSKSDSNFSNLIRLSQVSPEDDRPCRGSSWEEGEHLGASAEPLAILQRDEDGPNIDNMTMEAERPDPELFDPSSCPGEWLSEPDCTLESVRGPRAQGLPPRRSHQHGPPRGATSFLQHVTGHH
# CDK4 CCND1 (human) = CDK4 CCND1 (human) (UniProt P24385+P11802)
# STK24 (human) = STK24 (human) (UniProt Q9Y6E0)
# CSF1R (human) = CSF1R (human) (UniProt P07333)
# Sequence of CSF1R (human) (P07333 whole entry, looked up): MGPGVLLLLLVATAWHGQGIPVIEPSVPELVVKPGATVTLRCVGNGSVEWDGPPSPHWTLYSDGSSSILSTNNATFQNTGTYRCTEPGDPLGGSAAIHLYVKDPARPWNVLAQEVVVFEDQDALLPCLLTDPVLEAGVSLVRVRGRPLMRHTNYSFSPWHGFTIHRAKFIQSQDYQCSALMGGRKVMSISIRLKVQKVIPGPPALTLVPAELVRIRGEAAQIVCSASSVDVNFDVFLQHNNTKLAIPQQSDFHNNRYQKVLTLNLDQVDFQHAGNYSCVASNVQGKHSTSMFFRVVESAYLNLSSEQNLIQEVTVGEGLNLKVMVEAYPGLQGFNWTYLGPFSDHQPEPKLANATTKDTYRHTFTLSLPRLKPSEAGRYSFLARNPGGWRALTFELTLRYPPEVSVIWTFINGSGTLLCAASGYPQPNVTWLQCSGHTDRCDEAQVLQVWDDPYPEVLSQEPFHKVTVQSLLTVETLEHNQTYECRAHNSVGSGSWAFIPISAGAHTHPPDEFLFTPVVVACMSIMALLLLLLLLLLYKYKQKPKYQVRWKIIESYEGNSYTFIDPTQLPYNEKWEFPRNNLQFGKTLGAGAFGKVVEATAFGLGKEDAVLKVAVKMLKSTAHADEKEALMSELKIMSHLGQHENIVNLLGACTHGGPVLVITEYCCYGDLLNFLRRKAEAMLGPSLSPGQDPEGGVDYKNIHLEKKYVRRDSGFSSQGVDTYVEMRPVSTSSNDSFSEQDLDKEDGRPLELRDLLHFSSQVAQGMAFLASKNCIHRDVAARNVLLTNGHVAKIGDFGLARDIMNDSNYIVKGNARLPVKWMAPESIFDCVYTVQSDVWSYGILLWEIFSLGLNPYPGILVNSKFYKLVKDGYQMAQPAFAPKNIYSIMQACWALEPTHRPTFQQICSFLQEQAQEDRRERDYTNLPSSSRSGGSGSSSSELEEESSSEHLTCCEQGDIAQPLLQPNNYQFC
# MET (human) = MET (human) (UniProt P08581)
# MAP3K14 (human) = MAP3K14 (human) (UniProt Q99558)
# Sequence of MAP3K14 (human) (Q99558 whole entry, looked up): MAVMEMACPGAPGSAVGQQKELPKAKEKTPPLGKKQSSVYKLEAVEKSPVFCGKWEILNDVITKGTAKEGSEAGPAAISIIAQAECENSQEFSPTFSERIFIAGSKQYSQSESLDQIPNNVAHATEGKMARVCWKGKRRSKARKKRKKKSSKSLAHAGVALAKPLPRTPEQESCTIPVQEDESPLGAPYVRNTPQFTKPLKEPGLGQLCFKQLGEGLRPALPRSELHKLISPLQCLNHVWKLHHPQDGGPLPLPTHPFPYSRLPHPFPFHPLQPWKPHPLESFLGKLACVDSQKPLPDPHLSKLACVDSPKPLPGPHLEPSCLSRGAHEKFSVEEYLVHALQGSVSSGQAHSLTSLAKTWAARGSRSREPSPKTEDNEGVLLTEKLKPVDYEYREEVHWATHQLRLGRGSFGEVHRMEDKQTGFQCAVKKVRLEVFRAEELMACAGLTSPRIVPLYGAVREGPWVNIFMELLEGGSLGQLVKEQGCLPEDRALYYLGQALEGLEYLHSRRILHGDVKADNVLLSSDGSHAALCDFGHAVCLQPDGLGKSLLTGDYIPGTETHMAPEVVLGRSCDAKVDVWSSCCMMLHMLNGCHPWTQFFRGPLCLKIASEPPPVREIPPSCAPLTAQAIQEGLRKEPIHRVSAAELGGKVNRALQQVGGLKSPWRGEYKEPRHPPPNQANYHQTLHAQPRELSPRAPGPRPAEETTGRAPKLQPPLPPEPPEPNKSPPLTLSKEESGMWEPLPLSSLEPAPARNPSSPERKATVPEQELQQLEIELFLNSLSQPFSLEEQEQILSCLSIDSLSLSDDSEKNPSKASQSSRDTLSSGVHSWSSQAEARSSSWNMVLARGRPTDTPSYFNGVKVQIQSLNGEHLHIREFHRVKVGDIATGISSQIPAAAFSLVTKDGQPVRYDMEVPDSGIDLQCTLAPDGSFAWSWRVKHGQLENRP
# CAMKK2 (human) = CAMKK2 (human) (UniProt Q96RR4)
# EPHA5 (human) = EPHA5 (human) (UniProt P54756)
# KDR (human) = KDR (human) (UniProt P35968)
# EPHA2 (human) = EPHA2 (human) (UniProt P29317)
# Sequence of EPHA2 (human) (P29317 whole entry, looked up): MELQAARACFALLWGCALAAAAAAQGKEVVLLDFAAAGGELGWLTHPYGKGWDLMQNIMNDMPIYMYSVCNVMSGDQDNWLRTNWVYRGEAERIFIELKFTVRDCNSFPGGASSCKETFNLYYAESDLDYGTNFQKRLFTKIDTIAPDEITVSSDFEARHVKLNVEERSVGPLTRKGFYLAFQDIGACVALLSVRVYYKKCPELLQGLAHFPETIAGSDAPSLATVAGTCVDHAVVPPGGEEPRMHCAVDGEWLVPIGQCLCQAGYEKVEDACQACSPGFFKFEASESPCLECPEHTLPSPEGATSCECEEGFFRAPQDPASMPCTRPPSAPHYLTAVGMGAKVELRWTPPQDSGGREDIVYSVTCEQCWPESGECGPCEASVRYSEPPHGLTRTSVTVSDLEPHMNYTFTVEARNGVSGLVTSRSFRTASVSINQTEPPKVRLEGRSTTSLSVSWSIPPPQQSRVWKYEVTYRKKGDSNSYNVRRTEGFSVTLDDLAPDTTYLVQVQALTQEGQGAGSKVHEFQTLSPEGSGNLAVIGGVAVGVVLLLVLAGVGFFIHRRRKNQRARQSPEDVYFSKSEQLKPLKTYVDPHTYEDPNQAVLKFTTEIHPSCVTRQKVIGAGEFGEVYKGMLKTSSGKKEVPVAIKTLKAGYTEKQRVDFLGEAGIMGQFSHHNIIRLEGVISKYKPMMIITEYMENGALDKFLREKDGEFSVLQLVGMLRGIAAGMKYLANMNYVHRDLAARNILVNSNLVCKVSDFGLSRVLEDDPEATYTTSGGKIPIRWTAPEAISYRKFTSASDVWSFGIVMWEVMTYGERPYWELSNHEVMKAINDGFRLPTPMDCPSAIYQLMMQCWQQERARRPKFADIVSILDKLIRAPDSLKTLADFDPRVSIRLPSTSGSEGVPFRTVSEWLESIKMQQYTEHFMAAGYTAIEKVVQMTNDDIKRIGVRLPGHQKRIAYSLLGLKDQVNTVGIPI
# Sequence of MAP4K5 (human) (Q9Y4K4 whole entry, looked up): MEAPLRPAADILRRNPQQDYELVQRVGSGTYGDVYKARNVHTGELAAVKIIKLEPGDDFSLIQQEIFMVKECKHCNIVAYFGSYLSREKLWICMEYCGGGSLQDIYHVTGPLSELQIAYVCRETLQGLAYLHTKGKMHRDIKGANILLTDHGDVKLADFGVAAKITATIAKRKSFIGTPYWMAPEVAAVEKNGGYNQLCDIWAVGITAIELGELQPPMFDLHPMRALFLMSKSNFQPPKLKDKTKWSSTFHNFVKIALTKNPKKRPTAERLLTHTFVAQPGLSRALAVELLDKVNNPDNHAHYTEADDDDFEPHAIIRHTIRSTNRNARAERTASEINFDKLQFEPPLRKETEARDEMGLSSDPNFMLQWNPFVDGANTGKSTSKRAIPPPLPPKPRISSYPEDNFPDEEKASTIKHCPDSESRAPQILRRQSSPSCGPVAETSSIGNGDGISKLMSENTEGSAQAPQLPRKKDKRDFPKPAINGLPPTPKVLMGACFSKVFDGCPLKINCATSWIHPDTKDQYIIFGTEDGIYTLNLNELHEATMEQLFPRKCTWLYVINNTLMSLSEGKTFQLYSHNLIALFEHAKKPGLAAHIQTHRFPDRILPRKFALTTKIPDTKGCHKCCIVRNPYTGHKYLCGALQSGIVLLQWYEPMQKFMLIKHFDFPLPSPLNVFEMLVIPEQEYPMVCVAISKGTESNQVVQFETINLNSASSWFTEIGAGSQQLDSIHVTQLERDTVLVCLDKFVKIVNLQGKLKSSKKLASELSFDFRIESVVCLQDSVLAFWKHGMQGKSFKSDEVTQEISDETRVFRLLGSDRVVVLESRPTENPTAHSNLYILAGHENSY
smiles,measurement,setting,value
COc1cc(Nc2c(C#N)cnc3cc(OCCCN4CCN(C)CC4)c(OC)cc23)c(Cl)cc1Cl,residual activity,PRKCZ (human),89.7%
same,residual activity,[1],99%
same,residual activity,ROCK1 (human),105%
same,residual activity,STK3 (human),13.9%
same,residual activity,SIK2 (human),1.93%
same,residual activity,MAP4K5 (human),1.72%
same,residual activity,TNK2 (human),3.54%
same,residual activity,SLK (human),21.6%
same,residual activity,WNK2 (human),94.2%
same,residual activity,PRKCD (human),40.3%
same,residual activity,NUAK2 (human),59.5%
same,residual activity,ACVR1B (human),105%
same,residual activity,CAMK2B (human),86.2%
same,residual activity,RPS6KA1 KD1 KD2 (human),80.4%
same,residual activity,CAMKK1 (human),84.8%
same,residual activity,FGFR2 (human),58.1%
same,residual activity,MELK (human),25.8%
same,residual activity,PDGFRA (human),86.9%
same,residual activity,[2],44.1%
same,residual activity,CDK5 CDK5R1 p35 (human),98.3%
same,residual activity,DYRK1B (human),97%
same,residual activity,BLK (human),20.7%
same,residual activity,DYRK3 (human),91.8%
same,residual activity,PRKCB1 (human),99.8%
same,residual activity,GRK4 (human),92.4%
same,residual activity,SGK2 (human),103%
same,residual activity,CDK1 CCNA2 (human),96.9%
same,residual activity,STK25 (human),10.1%
same,residual activity,[3],98.1%
same,residual activity,PRKD3 (human),42.2%
same,residual activity,SRMS (human),90.6%
same,residual activity,ABL2 (human),2.19%
same,residual activity,HIPK4 (human),74.6%
same,residual activity,CDK4 CCND1 (human),97.1%
same,residual activity,STK24 (human),11%
same,residual activity,CSF1R (human),43.1%
same,residual activity,MET (human),84.5%
same,residual activity,MAP3K14 (human),129%
same,residual activity,CAMKK2 (human),85.1%
same,residual activity,EPHA5 (human),37.1%
O=C1c2ccccc2-c2nc3nnnn3nc21,residual activity,PRKCZ (human),99.1%
same,residual activity,[1],101%
same,residual activity,ROCK1 (human),94.5%
same,residual activity,SIK2 (human),106%
same,residual activity,MAP4K5 (human),78.7%
same,residual activity,TNK2 (human),44.9%
same,residual activity,SLK (human),92.4%
same,residual activity,WNK2 (human),143%
same,residual activity,PRKCD (human),102%
same,residual activity,KDR (human),1.95%
same,residual activity,NUAK2 (human),92.5%
same,residual activity,ACVR1B (human),113%
same,residual activity,EPHA2 (human),100%
same,residual activity,CAMK2B (human),85.1%
same,residual activity,RPS6KA1 KD1 KD2 (human),53.1%
same,residual activity,CAMKK1 (human),74.9%
same,residual activity,FGFR2 (human),59.4%
same,residual activity,MELK (human),55.7%
same,residual activity,PDGFRA (human),44.1%
same,residual activity,[2],5.79%
same,residual activity,CDK5 CDK5R1 p35 (human),79.1%
same,residual activity,DYRK1B (human),81%
same,residual activity,BLK (human),109%
same,residual activity,DYRK3 (human),88.6%
same,residual activity,PRKCB1 (human),83.1%
same,residual activity,GRK4 (human),68.4%
same,residual activity,SGK2 (human),75.1%
same,residual activity,CDK1 CCNA2 (human),48.9%
same,residual activity,STK25 (human),101%
same,residual activity,[3],77.2%
same,residual activity,PRKD3 (human),83.4%
same,residual activity,SRMS (human),6.33%
same,residual activity,ABL2 (human),89.7%
same,residual activity,HIPK4 (human),97.9%
same,residual activity,CDK4 CCND1 (human),59.9%
same,residual activity,STK24 (human),101%
same,residual activity,CSF1R (human),11.6%
same,residual activity,MET (human),83.3%
same,residual activity,MAP3K14 (human),124%
same,residual activity,CAMKK2 (human),76.9%
same,residual activity,EPHA5 (human),81.5%
COc1ccc2c(c1)/C(=C/c1cnc[nH]1)C(O)=N2,residual activity,PRKCZ (human),107%
same,residual activity,[1],83.8%
same,residual activity,ROCK1 (human),96%
same,residual activity,STK3 (human),12.2%
same,residual activity,SIK2 (human),100%
same,residual activity,TNK2 (human),92.6%
same,residual activity,SLK (human),81.9%
same,residual activity,WNK2 (human),102%
same,residual activity,PRKCD (human),95.5%
same,residual activity,KDR (human),78.7%
same,residual activity,NUAK2 (human),116%
same,residual activity,ACVR1B (human),105%
same,residual activity,EPHA2 (human),98.4%
same,residual activity,RPS6KA1 KD1 KD2 (human),69.6%
same,residual activity,CAMKK1 (human),91.3%
same,residual activity,FGFR2 (human),84%
same,residual activity,MELK (human),36.5%
same,residual activity,PDGFRA (human),94.9%
same,residual activity,[2],66.4%
same,residual activity,CDK5 CDK5R1 p35 (human),-0.369%
same,residual activity,DYRK1B (human),53.1%
same,residual activity,BLK (human),90.3%
same,residual activity,DYRK3 (human),98.6%
same,residual activity,PRKCB1 (human),112%
same,residual activity,GRK4 (human),93.6%
same,residual activity,SGK2 (human),71.4%
same,residual activity,CDK1 CCNA2 (human),43.7%
same,residual activity,STK25 (human),86.2%
same,residual activity,[3],45%
same,residual activity,PRKD3 (human),38%
same,residual activity,SRMS (human),103%
same,residual activity,ABL2 (human),90.6%
same,residual activity,HIPK4 (human),90.8%
same,residual activity,CDK4 CCND1 (human),33.7%
same,residual activity,STK24 (human),53.1%
same,residual activity,CSF1R (human),88.7%
same,residual activity,MET (human),103%
same,residual activity,MAP3K14 (human),96.9%
same,residual activity,CAMKK2 (human),89.5%
same,residual activity,EPHA5 (human),86.2%
Cc1cncc2cccc(S(=O)(=O)N3CCCN(C(=O)CN)C[C@H]3C)c12,residual activity,PRKCZ (human),91.2%
same,residual activity,[1],108%
same,residual activity,ROCK1 (human),3.44%
same,residual activity,STK3 (human),104%
same,residual activity,SIK2 (human),89.4%
same,residual activity,MAP4K5 (human),103%
same,residual activity,TNK2 (human),84.5%
same,residual activity,SLK (human),90.4%
same,residual activity,WNK2 (human),98%
same,residual activity,PRKCD (human),22.4%
same,residual activity,KDR (human),99%
same,residual activity,NUAK2 (human),125%
same,residual activity,ACVR1B (human),100%
same,residual activity,CAMK2B (human),92.4%
same,residual activity,RPS6KA1 KD1 KD2 (human),90.4%
same,residual activity,CAMKK1 (human),115%
same,residual activity,FGFR2 (human),98.4%
same,residual activity,MELK (human),83%
same,residual activity,PDGFRA (human),93.5%
same,residual activity,[2],113%
same,residual activity,CDK5 CDK5R1 p35 (human),97.4%
same,residual activity,DYRK1B (human),101%
same,residual activity,BLK (human),97.7%
same,residual activity,DYRK3 (human),107%
same,residual activity,PRKCB1 (human),99.4%
same,residual activity,GRK4 (human),94%
same,residual activity,SGK2 (human),102%
same,residual activity,CDK1 CCNA2 (human),89.2%
same,residual activity,STK25 (human),119%
same,residual activity,[3],86.6%
same,residual activity,PRKD3 (human),85.4%
same,residual activity,SRMS (human),106%
same,residual activity,ABL2 (human),98.9%
same,residual activity,HIPK4 (human),91.1%
same,residual activity,CDK4 CCND1 (human),114%
same,residual activity,STK24 (human),92.4%
same,residual activity,CSF1R (human),95.6%
same,residual activity,MET (human),104%
same,residual activity,MAP3K14 (human),109%
same,residual activity,CAMKK2 (human),115%
same,residual activity,EPHA5 (human),95.1%
CC(C)(C)c1cc(C=C(C#N)C#N)cc(Br)c1O,residual activity,PRKCZ (human),102%
same,residual activity,[1],107%
same,residual activity,ROCK1 (human),82.9%
same,residual activity,SIK2 (human),115%
same,residual activity,MAP4K5 (human),95.8%
same,residual activity,TNK2 (human),93.1%
same,residual activity,SLK (human),94.7%
same,residual activity,WNK2 (human),126%
same,residual activity,PRKCD (human),83%
same,residual activity,KDR (human),97.8%
same,residual activity,NUAK2 (human),99.6%
same,residual activity,ACVR1B (human),108%
same,residual activity,EPHA2 (human),105%
same,residual activity,CAMK2B (human),99.3%
same,residual activity,RPS6KA1 KD1 KD2 (human),104%
same,residual activity,CAMKK1 (human),120%
same,residual activity,FGFR2 (human),96.4%
same,residual activity,MELK (human),91.6%
same,residual activity,PDGFRA (human),95.4%
same,residual activity,[2],102%
same,residual activity,CDK5 CDK5R1 p35 (human),102%
same,residual activity,DYRK1B (human),103%
same,residual activity,BLK (human),97.9%
same,residual activity,DYRK3 (human),102%
same,residual activity,PRKCB1 (human),102%
same,residual activity,GRK4 (human),101%
same,residual activity,SGK2 (human),120%
same,residual activity,CDK1 CCNA2 (human),87.8%
same,residual activity,STK25 (human),102%
same,residual activity,[3],61.3%
same,residual activity,PRKD3 (human),92.7%
same,residual activity,SRMS (human),98.4%
same,residual activity,ABL2 (human),57.1%
same,residual activity,HIPK4 (human),103%
same,residual activity,CDK4 CCND1 (human),115%
same,residual activity,STK24 (human),96.3%
same,residual activity,CSF1R (human),96.8%
same,residual activity,MET (human),111%
same,residual activity,MAP3K14 (human),97.3%
same,residual activity,CAMKK2 (human),92.5%
same,residual activity,EPHA5 (human),106%

# — the kinase profiling compilation of Christmann-Franck et al. (2016)
